{"source": "patent US4826873A", "about": "“2,3-dihydroxy-3-phenyl-N-(2-phenyl-ethyl)-propionic acid amides derivatives thereof” (priority 1986, dated 1989)", "key": {"[1]": {"system": "CCl4 intoxicated mice", "assay": "Effect on SGPT level of CCl4-intoxicated mice (pretreatment, Table 1)", "format": "in vivo, mice (male Kunming strain)", "method": "(§1) Male Kunming strain mice weighing 18-22 grams were used throughout the experiments. The compound to be tested was suspended in 5% Tween 80 and given orally by gavage. The vehicle of 5% Tween 80 solution was administered to control mice via the same route. In the vitro experiments,the compound was dissolved in dimethylformamide and added directly into the incubation mixture.\n(§2) The parameters adopted for hepatotoxicicity included serum tranaminase (SGPT), liver triglycerides, and pathological examination of liver tissues. The liver lesions were scored mainly by the extent of inflammation and necrosis and graded from 0 to 4.\nMice were divided into several groups.\nThe control group received the vehicle. The other groups were given two doses of the compound (250 mg/kg) at an interval of 8 h, respectively. All the mice were injected ip 10 ml/kg of 0.1% CCl4 in vegetable oil 24 h after the last administration of the compound. The mice were fasted for 16 h and sacrificed by decapitation. SGPT and liver lipids were determined. A piece of liver was processed into sectins for pathological examination."}, "[2]": {"system": "CCl4 hepatotoxicity in mice", "assay": "Therapeutic effect on CCl4 (0.15%) hepatotoxicity in mice (Table 2)", "format": "in vivo, mice (male Kunming strain)", "method": "as §1, §2\nIn the experiments of anti-CCl4 hepatotoxicity, mice were first injected 10 ml/kg of 0.15% CCl4 in vegetable oil every other day for three doses. The treatment of mice with the compound (250 mg/kg daily) started from the second to fifth day after the first injection of CCl4. The determination of SGPT and pathological examination of liver tissues were performed on day 7 of the experiment."}, "[3]": {"system": "acetaminophen hepatotoxicity in mice", "assay": "Anti-acetaminophen hepatotoxicity experiment in mice", "format": "in vivo, mice (male Kunming strain)", "conditions": "250 mg/kg two doses first day and same dose second day; acetaminophen 150 mg/kg ip", "method": "as §1, §2\nIn the anti-acetaminophen hepatotoxicity experiment, mice received two doses (250 mg/kg) of the compound on the first day and the same dose on the second day. A dose of 150 mg/kg of acetaminophen was injected ip 6 h after the last dose of the compound, SGPT was determined and liver tissues were examined 20 h after acetaminophen injection."}, "[4]": {"system": "CCl4-initiated lipid peroxidation of liver microsomes (MDA)", "assay": "CCl4-initiated lipid peroxidation of liver microsomes, MDA formation in vitro (Table 6)", "format": "biochemical, mice (phenobarbital-induced)", "conditions": "1 mM compound", "method": "as §1\n(§3) CCl4 hepatotoxicity has been considered to be due to formation of free radicals which initiate lipid peroxidation or covalent binding to macromolecules of microsomes. Thus, the structures and function of cell membranes were destroyed. The effect of the compound on CCl4 induced lipid peroxidation (malonic dialdehyde, MDA, in vitro, and diene conjugates in vivo) and ^14 CCl4 covalent binding to lipids and proteins of microsomes were investigated.\nMDA formation: The compound was pre-incubated with NADPH-reduced liver microsomes from phenobarbital-induced mice at 37° C. for 15 minutes, 10 ul of CCl4 (diluted with 20 volume of ethanol) was added into the incubation mixture, reincubated for 20 minutes. The production of MDA was determined by the method of thiobarbituric acid."}, "[5]": {"system": "microsomal lipids", "assay": "14CCl4 covalent binding to microsomal lipids", "format": "biochemical, mice", "conditions": "1 mM, NADPH-reduced liver microsomes", "method": "as §1, §3\nThe condition of incubation was similar to that of MDA production. The compound was pre-incubated with NADPH-reduced liver microsomes for 10 minutes. The final concentration of the compound was 1 mM. ^14 CCl4 0.5 uci was added to the incubation mixture. Incubation was continued for another 60 minutes. The radio-activity of ^14 CCl4 in microsomal lipids and proteins was separated by the method of extraction of diene conjugates and counted by liquid scintillation."}, "[6]": {"system": "liver", "assay": "Liver weight and microsomal protein content (Table 7)", "format": "in vivo, mice (male Kunming strain)", "method": "as §1\n(§4) The liver microsomal cytochrome P-450 plays a key role in the detoxification of xenobiotics. […] Mice were administered 250 mg/kg of the compound once daily for 3 days. The control mice received the vehicle. The mice were killed after fasting overnight. Liver microsomes were prepared and microsomal monooxygenases were determined."}, "[7]": {"system": "hepatic microsomal cytochrome P-450", "assay": "Induction of hepatic microsomal cytochrome P-450 in mice (Table 7)", "format": "in vivo, mice (male Kunming strain)", "conditions": "for hepatic cytochrome P-450 (in words): 250 mg/kg once daily, 3 days", "method": "as §1, §4\nIn another experiment, mice were given a dose of 250 mg/kg of the compound. Sodium pentobarbital (50 mg/kg) was injected ip 1 and 24 h after administration of the compound. The sleeping time was estimated by recording the interval of disappearance and recovery of righting reflex. […] It means that the prolongation of pentobarbital sleeping time by the compound was due to the inhibition of liver drug metabolism enzyme."}, "[8]": {"system": "NADPH-cytochrome c reductase", "assay": "Hepatic NADPH-cytochrome c reductase in mice (Table 7)", "format": "in vivo, mice (male Kunming strain)", "method": "as §1, §4"}, "[9]": {"system": "cytochrome b5", "assay": "Hepatic cytochrome b5 in mice (Table 7)", "format": "in vivo, mice (male Kunming strain)", "method": "as §1, §4"}, "[10]": {"system": "benzo(a)pyrene hydroxylase", "assay": "Hepatic AHH / benzo(a)pyrene hydroxylase in mice (Table 7)", "format": "in vivo, mice (male Kunming strain)", "method": "as §1, §4"}, "[11]": {"system": "barbital sleeping time in mice", "assay": "Barbital sleeping time in mice (Table 8)", "format": "in vivo, mice (male Kunming strain)", "method": "as §1\nIn another experiment, mice were given a dose of 250 mg/kg of the compound. […] The sleeping time was estimated by recording the interval of disappearance and recovery of righting reflex. […] It means that the prolongation of pentobarbital sleeping time by the compound was due to the inhibition of liver drug metabolism enzyme."}, "[12]": {"conditions": "listed as compound of the general formula (I), R1 =H, R2 =CH3"}}}
{"smiles": "CN(CCc1ccccc1)C(=O)C(O)C(O)c1ccccc1", "note": "(stereo not shown) [Compound, 2,3-dihydroxy-N-methyl-3-phenyl-N-(2-phenylethyl)-propionic acid amide]", "values": [{"measurement": "SGPT (X ± SE)", "setting": "[1]; 250 mg/kg × 2, oral, 0.1% CCl4 10 ml/kg ip 24 h later, 9 per group, control 1678 ± 261, P <0.05", "value": "727 ± 266", "unit": "unit %"}, {"measurement": "effect on elevated SGPT of CCl4-intoxicated mice (in words)", "setting": "[1]; 250 mg/kg × 2, CCl4 ip", "value": "significantly decreased the elevated SGPT"}, {"measurement": "hepatoprotective action against CCl4 (conclusion, in words)", "setting": "[1]; mouse, in vivo", "value": "has hepatoprotective action against CCl4"}, {"measurement": "effect on liver lesions (in words)", "setting": "[2]; 250 mg/kg daily, day 7 examination", "value": "no effect on liver lesions"}, {"measurement": "SGPT lowering action (in words)", "setting": "[2]; 250 mg/kg daily, second to fifth day after first CCl4", "value": "significant SGPT lowering action"}, {"measurement": "SGPT (x ± SE)", "setting": "[2]; 250 mg/kg/day × 4, CCl4 0.15% in vegetable oil 10 ml/kg × 3, 8 per group, control 2695 ± 110, P <0.01", "value": "1801 ± 312", "unit": "unit %"}, {"measurement": "anti-acetaminophen hepatotoxicity (in words)", "setting": "[3]", "value": "inactive"}, {"measurement": "Inhibition of MDA", "setting": "[4]", "value": 16.3, "unit": "%"}, {"measurement": "MDA production / lipid peroxidation of microsomes induced by CCl4 (in words)", "setting": "[4]", "value": "inhibited MDA production initiated by CCl4 in vitro"}, {"measurement": "MDA production / lipid peroxidation of microsomes induced by CCl4 (in words)", "setting": "[4]; [12]", "value": "could inhibit lipid peroxidation"}, {"measurement": "MDA", "setting": "[4]; number of determinations 3, control 35.5", "value": "29.7 ± 4", "unit": "OD × 100/1.5 mg"}, {"measurement": "covalent binding of 14CCl4 to microsomal lipids (in words)", "setting": "[5]", "value": "not inhibited"}, {"measurement": "Liver weight", "setting": "[6]; 250 mg/kg day × 3, 6 per group, control 4.0 ± 0.2, P >0.05", "value": "4.3 ± 0.2", "unit": "g %"}, {"measurement": "Microsomal protein", "setting": "[6]; 250 mg/kg day × 3, control 6.3 ± 0.3, P >0.05", "value": "7.0 ± 0.5", "unit": "mg/g liver"}, {"measurement": "increase of liver size (in words)", "setting": "[6]; 250 mg/kg once daily, 3 days", "value": "not seen"}, {"measurement": "increase of microsomal protein content (in words)", "setting": "[6]; 250 mg/kg once daily, 3 days", "value": "not seen"}, {"measurement": "Cytochrome P-450", "setting": "[7]; 250 mg/kg day × 3, control 0.87 ± 0.07, P <0.01", "value": "1.23 ± 0.06", "unit": "nmol/mg protein"}, {"measurement": "hepatic cytochrome P-450 (in words)", "setting": "[7]", "value": "increased significantly"}, {"measurement": "hepatic cytochrome P-450 (in words)", "setting": "[7]; [12]", "value": "inducing action on hepatic cytochrome p-450"}, {"measurement": "biphasic actions on hepatic microsomal cytochrome p-450 (in words)", "setting": "[7]; concluded from barbiturate sleeping times", "value": "inhibition followed by induction"}, {"measurement": "NADPH-cytochrome C reductase", "setting": "[8]; 250 mg/kg day × 3, control 103 ± 2.5, P <0.01", "value": "148 ± 2.5 nmol cytochrome c reduced/min/"}, {"measurement": "NADPH-cytochrome c reductase activity (in words)", "setting": "[8]; 250 mg/kg once daily, 3 days", "value": "increased significantly"}, {"measurement": "Cytochrome b5", "setting": "[9]; 250 mg/kg day × 3, control 0.15 ± 0.01, P >0.05", "value": "0.16 ± 0.016", "unit": "nmol/mg protein"}, {"measurement": "cytochrome b5 (in words)", "setting": "[9]; 250 mg/kg once daily, 3 days", "value": "increased significantly"}, {"measurement": "AHH", "setting": "[10]; 250 mg/kg day × 3, control 2.6 ± 0.4, P <0.01", "value": "6.2 ± 0.42", "unit": "nmol/min/mg protein"}, {"measurement": "benzo(a)pyrene hydroxylase activity (in words)", "setting": "[10]; 250 mg/kg once daily, 3 days", "value": "increased significantly"}, {"measurement": "Sleeping time (X ± SE)", "setting": "[11]; 1 h before barbital 200 mg/kg, 10 per group, control 197 ± 27, P >0.05", "value": "172 ± 13"}, {"measurement": "barbital sleeping time (in words)", "setting": "[11]; prior administration of compound", "value": "did not affect sleeping time"}]}
